Measurements taken from US20230226227A1, “PROSTATE SPECIFIC MEMBRANE ANTIGEN (PSMA) LIGANDS AND USES THEREOF” (ADVANCED ACCELERATOR APPLICATIONS (ITALY) SRL, priority 2019, published 2023).
Several values for one entry are separate records, joined by “and”; a condition that tells them apart may be missing. Equal values may be shown once. Entries after “also recorded” stand apart in the source; their conditions may differ.

Tests used:
[1] = Plasma protein binding by ultrafiltration, minipig plasma; assay type: in vitro ADME
Description: (§1) Plasma protein binding of PSMA-R2 and ^175Lu-PSMA-R2 has been determined by ultrafiltration method, after incubation of the compounds in human, mouse, rat and minipig plasma at two different concentrations: 1 and 5 µg/mL.

[2] = Plasma protein binding by ultrafiltration, mouse plasma; assay type: in vitro ADME
Description: as §1

[3] = Effects on cardiovascular function of the conscious telemetered minipig; assay type: in vivo; conditions: iv 0.058, 0.175, 0.58 mg/kg
Description: The purpose of this study was to investigate the potential effects of ^175Lu-PSMA-R2 on the cardiovascular functions of the conscious telemetered male minipig following intravenous administration at doses of 0.058, 0.175 and 0.583 mg/kg.
The test item or vehicle was administered intravenously into the external auricular vein at a fixed injection rate of 4 mL/min. The dose was administered to each animal at a dose volume of 1 mL/kg body weight.
At 7-day intervals, each animal received the vehicle or one of the three doses of the test item, following the crossover design described in Table 4.
Systolic, diastolic and mean blood pressure (SBP, DBP and MBP), heart rate (HR), body temperature and Lead II electrocardiogram were recorded continuously, from 1 hour before administration up to 24 h after dosing. Haemodynamic and electrocardiographic data were reported at pre-dose and at 5, 15, 30 minutes and 1, 2, 4, 8 and 24 hours post-dose.

[4] = Repeated dose (2 weeks) toxicity and toxicokinetic study in the minipig; assay type: in vivo, minipigs; conditions: for Half-life: mean value per sex
Description: The tested doses are: 0.058, 0.175 and 0.583 mg/kg/day, that is about 14, 42 and 140 times the PSMA-R2 anticipated human dose.
Each group included 3 male and 3 female minipigs. Groups 1 and 4 included 2 additional animals per gender to be sacrificed after 2 weeks of recovery.
All animals were dosed intravenously once a day for 14 consecutive days.

[5] = Behavioral Irwin test after single intravenous administration; assay type: in vivo, rat
Description: The aim of this study was to evaluate the possible effects of ^175Lu-PSMA-R2, at doses of 0.2, 0.6 and 2.0 mg/kg, on general behavior parameters in the rat after intravenous administration, according to the study design in Table 2.
The following parameters were evaluated: mortality, body weight, clinical signs and Irwin test.
The Irwin test was performed at the following intervals after dosing: 5, 15, 30 minutes and 1, 2 and 24 hours.

[6] = tested on: Escherichia coli WP2 uvrA; assay: Bacterial mutation assay, Escherichia coli; assay type: cell-based
Description: (§2) The test item ^175Lu-labelled PSMA-R2 solution was examined for the ability to induce gene mutations in tester strains of Salmonella typhimurium and Escherichia coli, as measured by reversion of auxotrophic strains to prototrophy. The five tester strains TA1535, TA1537, TA98, TA100 and WP2 uvrA were used. Experiments were performed both in the absence and presence of metabolic activation, using liver S9 fraction from rats pre-treated with phenobarbital and 5,6-benzoflavone.
(§3) The test item was used as a solution in sodium acetate buffer and all concentrations in this report are expressed in terms of active ingredient. The test item ^175Lu-labelled PSMA-R2 solution was assayed in the toxicity test at a maximum feasible concentration of 1000 µg/plate and at four lower concentrations spaced at approximately half-log intervals: 316, 100, 31.6 and 10.0 µg/plate.
(§4) On the basis of the results obtained in the preliminary toxicity test, in the Main Assay, using the plate incorporation method, the test item was assayed with all tester strains at the following dose levels: 1000, 500, 250, 125 and 62.5 µg/plate. […] Since a clear negative result was obtained, no further experiment was undertaken.

[7] = Single dose toxicity study in the minipig; assay type: in vivo, Göttingen minipigs
Excerpt: A two-week treatment-free period was allowed after administration.
All animals were administrated intravenously. Plasma samples were collected at Day 1 for toxicokinetic analysis.
Mortality, clinical signs, body weight, food consumption, clinical pathology investigations, ophthalmoscopy, ECG evaluations, and macroscopic observations were indexed at necropsy. Then selected organs were weighed and tissues collected.
In addition, plasma samples were collected on Day 1 for toxicokinetic analysis.

[8] = Effect on respiration in the unrestrained conscious rat (whole-body plethysmography); assay type: in vivo; conditions: single iv 0.2, 0.6, 2 mg/kg; over 4 hours post-injection
Description: The aim of this study was to assess the possible effects of 0.2, 0.6 and 2.0 mg/kg ^175LuPSMA-R2 on respiratory function of conscious rats via a whole-body plethysmography method after intravenous administration according to the study design detailed in Table 3.
Inspiratory time, expiratory time, peak inspiratory flow, peak expiratory flow, tidal volume, relaxation time, minute volume, respiratory rate and enhanced pause were continuously recorded from approximately 1 hour before dosing up to 4 hours after dosing. Respiratory […] parameters were reported pre-dose and at 5, 15 and 30 minutes and 1, 1.5, 2, 3 and 4 hours after dosing. Clinical signs were recorded on the day of dosing.

[9] = Plasma protein binding by ultrafiltration, rat plasma; assay type: in vitro ADME
Description: as §1

[10] = Plasma protein binding by ultrafiltration, human plasma; assay type: in vitro ADME; conditions: for fu (%) fraction unbound: human plasma
Description: as §1

[11] = tested on: Salmonella typhimurium TA1535, TA1537, TA98, TA100; assay: Bacterial mutation assay, Salmonella typhimurium; assay type: cell-based
Description: as §2, §3, §4

[12] = daily iv 0.058, 0.175, 0.583 mg/kg/day for 14 days
[13] = 10.0-1000 µg/plate, absence or presence of S9
[14] = 62.5-1000 µg/plate, absence or presence of S9
[15] = absence or presence of S9 metabolism
[16] = single iv 0.175, 0.58, 1.75 mg/kg

For `O=C(O)CCC(NC(=O)NC(CCCCN(Cc1ccc(Br)cc1)C(=O)CCCCCNC(=O)CN1CCN(CC(=O)O)CCN(CC(=O)O)CCN(CC(=O)O)CC1)C(=O)O)C(=O)O.[175Lu]` (stereo not drawn) [^175Lu-PSMA-R2], the “fu (%) fraction unbound” value ([1]; 1 µg/mL) was 41.1 ± 4.2%, the “fu (%) fraction unbound” value ([1]; 5 µg/mL) was 46.1 ± 12.5% and the “fu (%) fraction unbound” value ([2]; 1 µg/mL) was 71.1 ± 4.4%. The “fu (%) fraction unbound” value ([2]; 5 µg/mL) was 71.0 ± 2.2%, the “Changes in heart rate, arterial blood pressure or electrocardiographic activity” value [3] was “No relevant changes in heart rate, arterial blood pressure or electrocardiographic activity were observed at the tested doses in conscious mini pigs” and the Half-life ([4]; Day 1, female minipigs) was 37.8 min. The Half-life ([4]; Day 1, male minipigs) was 42.6 min, the “Accumulation after daily administration” value ([4]; Day 1 to Day 14) was “No relevant accumulation” and the “Clinical pathology, gross pathology, terminal body weight, absolute and relative organ weight” value ([4]; any dose) was “did not reveal notable or treatment-related changes”. For the same compound, the Histopathology ([4]; any dose) was “no histopathology treatment-related modifications”, the “Body weights and food intake” value [4, 12] was “unaffected by the treatment” and the “Ophthalmoscopy and electrocardiographic examination” value [4, 12] was “No treatment-related abnormalities”. The Physical examination [4, 12] was “did not show appreciable changes”, the NOAEL ([4]; daily iv for 2 weeks) was 0.583 mg/kg/day and 0.58 mg/kg/day and the “Increase in systemic exposure (Cmax and AUC0-tlast) with dose” value ([4]; minipig, in vivo) was “approximately dose-proportional”. For the same compound, the “Plasma clearance, dose dependence” value ([4]; minipig, in vivo) was “dose-independent”, the “Treatment-related effects in treated groups compared to controls” value ([4]; once a day for 2 weeks) was “No evidence of treatment-related effects” and the Clinical signs ([5]; 6-day observation period) was “No clinical signs were observed”. For the same compound, the Mortality ([5]; single iv 0.2, 0.6 and 2.0 mg/kg) was “No deaths occurred”, the “Effects on behavioral, neurologic or autonomic parameters (Irwin)” value ([5]; single iv 0.2, 0.6 and 2.0 mg/kg, up to 24 h post-dose) was “did not induce any effects; also recorded: No effects” and the “Toxicity and revertant numbers, preliminary toxicity test” value [6, 13] was “Neither toxicity, nor relevant increases in revertant numbers”. For the same compound, the “Toxicity and revertant numbers, Main Assay (plate incorporation)” value [6, 14] was “Neither toxicity, nor relevant increases in revertant numbers”, the “Induction of reverse mutation (conclusion)” value [6, 15] was “does not induce reverse mutation” and the “Hematology and clinical chemistry” value ([7]; high dose group (1.75 mg/kg)) was “Some changes in hematology and clinical chemistry were observed in some animals”. For the same compound, the “Organ weights, macroscopic or microscopic changes” value [7, 16] was “No changes in the organ weights and no treatment-related macroscopic or microscopic changes”, the “Physical signs, ocular findings, electrocardiographic abnormalities” value [7, 16] was “No treatment-related physical signs, ocular findings, nor electrocardiographic abnormalities” and the Toxicity signs ([7]; single iv 0.175, 0.583 and 1.75 mg/kg) was “did not induce signs of toxicity; also recorded: No relevant treatment-related toxicity signs”. For the same compound, the “Changes in respiratory parameters” value [8] was “No changes of toxicological significance were observed in respiratory parameters recorded over 4 hours post-injection”, the “fu (%) fraction unbound” value ([9]; 1 µg/mL) was 37.4 ± 4.9% and the “fu (%) fraction unbound” value ([9]; 5 µg/mL) was 59.8 ± 4.4%. For the same compound, the “fu (%) fraction unbound” value ([10]; 1 µg/mL) was 43.9± 5.1%, the “fu (%) fraction unbound” value ([10]; 5 µg/mL) was 45.0 ± 9.6% and the “Plasma protein binding, assessment in words” value ([10]; human, plasma) was “non-highly bound”. The “Toxicity and revertant numbers, preliminary toxicity test” value [11, 13] was “Neither toxicity, nor relevant increases in revertant numbers”, the “Toxicity and revertant numbers, Main Assay (plate incorporation)” value [11, 14] was “Neither toxicity, nor relevant increases in revertant numbers” and the “Induction of reverse mutation (conclusion)” value [11, 15] was “does not induce reverse mutation”.
